In article PMC7595621, “Quorum sensing N-Acyl homoserine lactones are a new class of anti-schistosomal” (PLoS Neglected Tropical Diseases, 2020):
Converted amounts (≈) assume the structure as drawn.

Tests used:
S. mansoni schistosomula = experiment: Screening of S. mansoni schistosomula (Roboworm, motility and phenotype); format: cell-based, Schistosoma mansoni; settings: for Selectivity index, schistosomula motility: HepG2 CC50 / schistosomula motility EC50; for Selectivity index, schistosomula phenotype: HepG2 CC50 / schistosomula phenotype EC50; for EC50: Schistosoma mansoni, average across motility and phenotype, read-out: average EC50 for phenotype and motility, schistosomula; for concentrations at which schistosomula phenotype was affected / concentrations at which schistosomula motility was affected: titration 10 to 0.625 μM; for concentrations at which schistosomula phenotype was affected: hit below -0.15; for concentrations at which schistosomula motility was affected: hit below -0.35
Experimental: Biomphalaria glabrata (NMRI and the previously described pigmented strains) snails infected with S. mansoni (Puerto Rican strain) were shed for 2 hrs under light at 26 °C. Cercariae were collected, mechanically transformed into schistosomula and subsequently prepared for high throughput screening (HTS) on the Roboworm platform as previously described. Schistosomula were cultured in Basch Media (composed of BME media, 10% M169 media, 0.5x MEM vitamins, 10% Schneider’s insect media, 15.6mM Hepes, 5% heat inactivated FBS, 2x Antibiotic/anti-mycotic (Sigma-Aldrich, UK) solution (final concentrations shown)).
EC50 values were calculated from the titrated concentrations by non-linear regression, after log transformation of concentrations and data normalization using GraphPad Prism 7.02.
Fig 2 Anti-schistosomula activity of the eight analogues compared to parent compound 1. […] Test plates were incubated at 37°C for 72 hrs in an atmosphere containing 5% CO2. At 72hrs, schistosomula were scored using the Roboworm platform for both motility (A) and phenotype (B). Any compound that induced a score of below -0.35 for motility (A) and -0.15 for phenotype (B) were considered a hit. Black squares indicate the most positive effect on motility or phenotype; grey scale from dark grey to lighter shades of grey indicates a progressive reduced compound efficacy; white squares indicate no effect on either phenotype or motility. Z´ values for this screen was 0.41741 for motility and 0.57275 for phenotype. (C) Phenotypes of schistosomula when treated with 10μM of each of the test compounds and controls.
Supplementary file pntd.0008630.s003.tif: S1 Fig Initial schistosomula screens of the 14 compounds and their intermediate analogues. […] Test plates were incubated at 37°C for 72 hrs in an atmosphere containing 5% CO2. At 72hrs, schistosomula were scored using the Roboworm platform for both motility and phenotype as previously described. A) Of the 14 compounds evaluated, two fell within the hit region. Z’ scores for motility and phenotype were 0.40079 and 0.56846 respectively. […] Z´ scores for motility and phenotype were 0.37864 and 0.47882 respectively. *Average EC50 value across motility and phenotype is presented for each compound. (TIF) Click here for additional data file.

[1] = Cell cytotoxicity assay (MTT); format: cell-based, human; settings: human, HepG2 cells, MTT, 95% confidence interval, called EC50
Experimental: (§3) The cytotoxicity of each compound was assessed on human HepG2 cells as described previously [17]. Briefly, 2 x 10^4 cells/well were seeded in black walled 96-well microtiter plates (Fisher Scientific, Loughborough, UK) and incubated for 24 hr at 37°C in a humidified atmosphere containing 5% CO2. […] Following a further incubation for 24 hr, the MTT assay was performed as previously described [17, 27]. Dose response curves were obtained by non-linear regression, after log transformation of concentrations and data normalization using GraphPad Prism 7.02.

S. aureus ATCC 29213 = experiment: Broth microdilution MIC and IC50 determination, S. aureus; format: cell-based, Staphylococcus aureus; settings: for MIC: ATCC29213, 24 h
Experimental: (§1) S. aureus ATCC 29213 and E. coli ATCC 25922 were cultured in Luria-Bertani (LB) medium at 37°C with aeration at 200 rpm for 24 hr, with all procedures performed in a biosafety level 2 (BSL2) cabinet. Stationary phase cultures were then used for minimum inhibitory concentration (MIC) determination using the broth microdilution method, in fresh LB medium, in a 96-well plate. All compounds were tested in triplicate using an initial bacterial concentration of 5.0 × 10^5 colony forming units (CFU)/mL at a final concentration of 125 mg/L (5% and 2.5% v/v methanol). Compounds with no visible growth at 125 mg/L were further evaluated with progressing dilutions. […] Dilutions were repeated in three independent experiments where the optical density (OD600) was measured in a Hidex plate spectrophotometer and absorbance data used for the calculation of an IC50 value. The IC50 value was obtained from a dose response titration (125–0.09 mg/L). Dose response curves were obtained by non-linear regression, after log transformation of concentrations and data normalization using GraphPad Prism 7.02.
(§2) As Compound 1 was structurally similar to N-acyl homoserine lactones, a compound class involved in bacterial quorum sensing, we decided to assess its antimicrobial activity and determine if enantiomer separation or lactone ring substitution would change this activity.

E. coli ATCC 25922 = experiment: Broth microdilution MIC and IC50 determination, E. coli; format: cell-based; settings: Escherichia coli; for MIC: ATCC25922, 24 h, 24 hr
Experimental: as §1, §2

HepG2 cells = experiment: Cell cytotoxicity assay (MTT); format: cell-based, human; settings: 24 hr
Experimental: as §3

[2] = Staphylococcus aureus, 24 hr, no visible growth
[3] = Staphylococcus aureus, value in square brackets, 24 hr

Q: Which results are given for `O=C(CBr)NC1CCOC1=O` (centres unmarked) [Compound 1, 2-bromo-N-(2-oxotetrahydrofuran-3-yl)acetamide]?
A: effect on schistosomula motility and phenotype metrics in initial screen (S. mansoni schistosomula; 10 μM, 72 hrs): negatively affected both schistosomula motility and phenotype metrics; Selectivity index, schistosomula motility (S. mansoni schistosomula): 11.5; Selectivity index, schistosomula phenotype (S. mansoni schistosomula): 7.9; EC50 (S. mansoni schistosomula; 72 hrs): 4.7 µM; concentrations at which schistosomula phenotype was affected (S. mansoni schistosomula; 72 hrs): from 10 to 1.25; concentrations at which schistosomula motility was affected (S. mansoni schistosomula; 72 hrs): all concentrations tested; good compound effect on schistosomula observed down to a concentration (S. mansoni schistosomula; titration of initial hits, S1B Fig): 1.25 µM; CC50 at 24 h [1]: 43.5 µM; MIC (S. aureus ATCC 29213; [2]): 125 µg/mL; MIC (S. aureus ATCC 29213; [3]): 563 µM; MIC (E. coli ATCC 25922; no visible growth): 125 µg/mL; MIC (E. coli ATCC 25922; value in square brackets): 563 µM

Q: Which “Selectivity index, schistosomula motility” value (S. mansoni schistosomula) does the source give for `O=C(CBr)NC1CCSC1=O` (centres unmarked) [Compound 3, 2-bromo-N-(2-oxotetrahydrothiophen-3-yl)acetamide] here?
A: 9.8

Q: And the “Selectivity index, schistosomula phenotype” value (S. mansoni schistosomula)?
A: 8.1

Q: What about the EC50 (S. mansoni schistosomula; 72 hrs) of the same molecule?
A: 2.1 µM

Q: And the “concentrations at which schistosomula phenotype was affected” value (S. mansoni schistosomula; 72 hrs)?
A: all concentrations tested

Q: And the “concentrations at which schistosomula motility was affected” value (S. mansoni schistosomula; 72 hrs)?
A: all concentrations tested

Q: What about the CC50 at 24 h [1] of the same molecule?
A: 18.7 µM

Q: And the “fold increase in HepG2 cytotoxicity in comparison to compound 1” value (HepG2 cells)?
A: 2.3 fold

Q: And the “S. aureus MIC” value (S. aureus ATCC 29213; 24 hr, no visible growth)?
A: 31.3 µg/mL

Q: What about the MIC (S. aureus ATCC 29213; [2]) of the same molecule?
A: 31.2 µg/mL

Q: And the MIC (S. aureus ATCC 29213; [3])?
A: 131 µM

Q: And the IC50 (S. aureus ATCC 29213; Staphylococcus aureus, ATCC29213, Table 3, OD600, three independent experiments, 95% confidence interval in parentheses)?
A: 25.9 µg/mL (≈ 109 µM)

Q: And the MIC (E. coli ATCC 25922; no visible growth)?
A: 62.5 µg/mL

Q: What about the MIC (E. coli ATCC 25922; value in square brackets) of the same molecule?
A: 262 µM

Q: What about the IC50 (E. coli ATCC 25922; ATCC25922, Table 3, OD600, three independent experiments, 95% confidence interval in parentheses) of the same molecule?
A: 52.7 µg/mL (≈ 221 µM)
